This note sets out measurements from patent publication US20200061062A1, “INHIBITORS OF HUMAN PHOSPHATIDYLINOSITOL 3-KINASE DELTA” (ICOS Corporation, priority 2000, published 2020).

Data set [1] has as its target T1, PI3Kδ (Homo sapiens, UniProt O00329, S253N). The data set can be described thus: Biochemical assay using 200 μM ATP, Delta.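 Further: radiometric filter-binding assay: PI3Kδ transfers ³²P from γ-[³²P]ATP onto PIP2/PS liposomes, counted by scintillation, enzyme-only wells as positive control, no-enzyme wells as background.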
In another data set the target is T2, PI3Kγ (Homo sapiens, UniProt P48736).
T2 construct: His tag (pFastbac HTb vector) (N); FLAG (N); made in house; host or cells: Sf21 insect cells (baculovirus)
T2 sequence (P48736 whole entry): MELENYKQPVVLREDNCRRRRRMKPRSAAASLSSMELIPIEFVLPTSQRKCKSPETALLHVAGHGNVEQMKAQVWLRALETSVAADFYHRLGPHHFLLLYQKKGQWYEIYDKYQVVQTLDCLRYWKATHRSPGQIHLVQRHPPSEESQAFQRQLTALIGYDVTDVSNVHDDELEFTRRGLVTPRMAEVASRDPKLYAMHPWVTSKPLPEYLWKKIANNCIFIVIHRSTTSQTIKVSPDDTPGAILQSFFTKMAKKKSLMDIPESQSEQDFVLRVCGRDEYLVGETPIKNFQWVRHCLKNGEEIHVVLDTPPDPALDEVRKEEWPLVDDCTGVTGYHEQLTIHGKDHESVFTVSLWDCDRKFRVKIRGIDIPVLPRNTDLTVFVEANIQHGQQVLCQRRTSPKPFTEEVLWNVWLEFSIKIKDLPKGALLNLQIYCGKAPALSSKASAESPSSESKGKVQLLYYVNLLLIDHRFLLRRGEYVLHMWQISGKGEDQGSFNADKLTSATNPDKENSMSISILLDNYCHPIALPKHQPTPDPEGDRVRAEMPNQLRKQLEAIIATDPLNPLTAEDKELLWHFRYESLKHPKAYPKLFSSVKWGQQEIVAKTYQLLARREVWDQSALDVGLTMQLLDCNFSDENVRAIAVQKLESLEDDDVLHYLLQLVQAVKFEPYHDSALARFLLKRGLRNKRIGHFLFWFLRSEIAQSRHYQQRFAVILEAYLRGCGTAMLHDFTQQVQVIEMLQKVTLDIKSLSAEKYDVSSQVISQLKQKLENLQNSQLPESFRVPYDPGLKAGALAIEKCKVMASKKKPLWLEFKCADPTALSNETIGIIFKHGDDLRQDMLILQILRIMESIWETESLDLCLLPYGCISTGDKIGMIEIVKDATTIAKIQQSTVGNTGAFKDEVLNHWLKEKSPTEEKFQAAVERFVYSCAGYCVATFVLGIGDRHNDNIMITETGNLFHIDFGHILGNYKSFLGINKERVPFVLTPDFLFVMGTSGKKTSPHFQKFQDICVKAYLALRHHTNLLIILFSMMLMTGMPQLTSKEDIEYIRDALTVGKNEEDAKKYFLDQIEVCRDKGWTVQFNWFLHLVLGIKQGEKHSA
The data set can be described thus: Biochemical assay using 200 μM ATP, Gamma.

The target in data set [2] is T1, PI3Kδ. The data set can be described thus: Biochemical assay of PI3K potency and selectivity using 20 μM ATP, Delta. Set-up: His tag (pFastbac HTb vector) (N); FLAG; made in house; host or cells: Sf21 insect cells (baculovirus). The following applies: 20 μM ATP; read-out: Delta IC50. The source says: (§1) Recombinant PI3K heterodimeric complexes consisting of a p110 catalytic subunit and a p85 regulatory subunit were overexpressed using the BAC-TO-BAC® HT baculovirus expression system (GIBCO/BRL), and then purified for use in biochemical assays. The four Class I PI 3-kinases were cloned into baculovirus vectors as follows: […]

Data set [3] deals with T3, PI3Kβ (Homo sapiens, UniProt P42338).
T3 construct: His tag (pFastbac HTa vector) (N); FLAG (N); made in house; host or cells: Sf21 insect cells (baculovirus)
T3 sequence (P42338 whole entry): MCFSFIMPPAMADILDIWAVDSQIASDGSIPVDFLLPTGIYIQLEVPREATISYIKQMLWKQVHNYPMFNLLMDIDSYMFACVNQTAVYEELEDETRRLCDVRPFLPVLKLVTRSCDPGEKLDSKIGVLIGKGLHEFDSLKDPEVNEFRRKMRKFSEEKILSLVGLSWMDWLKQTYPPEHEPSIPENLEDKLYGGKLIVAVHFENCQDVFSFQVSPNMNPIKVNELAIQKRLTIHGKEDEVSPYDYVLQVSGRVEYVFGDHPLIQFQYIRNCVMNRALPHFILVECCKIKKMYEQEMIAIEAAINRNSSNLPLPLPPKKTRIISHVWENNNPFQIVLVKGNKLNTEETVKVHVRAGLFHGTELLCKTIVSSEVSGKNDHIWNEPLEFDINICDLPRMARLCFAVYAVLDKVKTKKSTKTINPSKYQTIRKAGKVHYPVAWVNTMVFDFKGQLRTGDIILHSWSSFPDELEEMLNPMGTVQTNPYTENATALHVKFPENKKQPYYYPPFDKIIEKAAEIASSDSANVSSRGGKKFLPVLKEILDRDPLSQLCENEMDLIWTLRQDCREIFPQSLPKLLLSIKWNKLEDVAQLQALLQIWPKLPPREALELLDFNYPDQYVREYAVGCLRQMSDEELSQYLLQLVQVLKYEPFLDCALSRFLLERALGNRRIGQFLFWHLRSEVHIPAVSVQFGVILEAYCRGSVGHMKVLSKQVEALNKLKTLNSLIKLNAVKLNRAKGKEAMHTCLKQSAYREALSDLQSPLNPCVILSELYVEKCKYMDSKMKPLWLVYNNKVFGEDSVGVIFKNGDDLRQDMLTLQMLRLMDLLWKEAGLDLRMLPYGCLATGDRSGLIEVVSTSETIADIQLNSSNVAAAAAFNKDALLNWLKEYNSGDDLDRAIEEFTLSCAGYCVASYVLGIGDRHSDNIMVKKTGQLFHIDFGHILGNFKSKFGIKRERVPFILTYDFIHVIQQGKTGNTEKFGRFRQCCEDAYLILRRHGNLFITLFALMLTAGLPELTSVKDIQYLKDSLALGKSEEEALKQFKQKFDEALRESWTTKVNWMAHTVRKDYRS
T3 sequence (P27986 whole entry partner): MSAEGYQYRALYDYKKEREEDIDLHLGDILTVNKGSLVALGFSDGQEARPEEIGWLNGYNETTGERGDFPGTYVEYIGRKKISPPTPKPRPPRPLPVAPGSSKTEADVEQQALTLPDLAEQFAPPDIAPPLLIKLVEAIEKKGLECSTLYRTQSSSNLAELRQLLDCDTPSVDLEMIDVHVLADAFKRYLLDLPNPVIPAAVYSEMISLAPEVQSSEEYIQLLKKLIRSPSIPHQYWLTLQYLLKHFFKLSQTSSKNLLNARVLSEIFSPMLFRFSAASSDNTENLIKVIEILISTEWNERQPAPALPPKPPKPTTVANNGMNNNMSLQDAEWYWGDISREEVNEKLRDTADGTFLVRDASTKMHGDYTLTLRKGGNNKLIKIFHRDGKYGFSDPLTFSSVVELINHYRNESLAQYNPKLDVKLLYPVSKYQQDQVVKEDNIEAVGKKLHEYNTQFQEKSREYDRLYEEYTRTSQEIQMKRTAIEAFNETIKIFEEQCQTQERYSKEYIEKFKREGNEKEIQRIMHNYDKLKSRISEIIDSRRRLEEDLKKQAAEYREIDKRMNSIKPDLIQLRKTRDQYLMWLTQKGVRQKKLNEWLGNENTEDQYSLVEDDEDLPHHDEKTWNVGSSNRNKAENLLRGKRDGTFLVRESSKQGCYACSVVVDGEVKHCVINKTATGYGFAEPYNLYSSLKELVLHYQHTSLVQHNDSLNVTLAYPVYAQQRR
The data set can be described thus: Biochemical assay using 200 μM ATP, Beta.
Description: PI3Kδ catalyzes a phosphotransfer from γ-[^32P]ATP to PIP2/PS liposomes at the D3′ position of the PIP2 lipid inositol ring. This reaction is MgCl2 dependent and is quenched in high molarity potassium phosphate buffer pH 8.0 containing 30 mM EDTA. […] The reaction products (and all unlabelled products) are transferred to a 96-well, prewetted PVDF filter plate, filtered, and washed in high molarity potassium phosphate. Scintillant is added to the dried wells and the incorporated radioactivity is quantitated.
This dilution established a final concentration of 200 μM ATP in the reaction volume. The reaction was stopped with 150 μL quench buffer (1.0 M potassium phosphate pH 8.0, 30 mM EDTA). A portion of the quenched solution (180 μL) was then transferred to a PVDF filter plate (Millipore # MAIP NOB prewetted with sequential 200 μL washes of 100% methanol, water, and finally 1.0 M potassium phosphate pH 8.0 wash buffer).
The PVDF filter plate was aspirated under moderate vacuum (2-5 mm Hg), washed with 5×200 μL of wash buffer, and then dried by aspiration. The filter was subsequently blotted, allowed to air dry completely, and inserted into a Wallac counting cassette with 50 μL of Ecoscint scintillation cocktail added per well.
Subsequent selectivity assays were done similarly using the same 3× substrate stocks except they contained 0.05 mCi/mL γ[^32P]ATP and 3 mM PIP2. Subsequent selectivity assays also used the same 3× enzyme stocks, except they now contained 3 nM of any given PI3K isoform.
For all selectivity assays, the test compounds were weighed out and dissolved into 10-50 mM stocks in 100% DMSO (depending on their respective solubilities) and stored at −20° C. […] From these dilutions, 20 μL was added into the assay wells alongside water blanks used for the enzyme (positive) control and the no enzyme (background) control.
This selectivity protocol is identical to that described above, except the 3× stock ATP concentration was 600 μM.

For data set [4], the target named is T3, PI3Kβ. Description: Biochemical assay of PI3K potency and selectivity using 20 μM ATP, Beta. As to conditions: 20 μM ATP; for Beta/Delta Ratio: ratio of IC50 values, > = hypothetical ratio with 100 μM substituted for the missing IC50; for IC50: read-out: Beta IC50; for remaining activity at 100 µM: read-out: Beta: percent activity remaining at 100 μM, 100 μM compound did not inhibit by at least 50%. How it is done:
Recombinant PI3K heterodimeric complexes consisting of a p110 catalytic subunit and a p85 regulatory subunit were overexpressed using the BAC-TO-BAC® HT baculovirus expression system (GIBCO/BRL), and then purified for use in biochemical assays. The four Class I PI 3-kinases were cloned into baculovirus vectors as follows:
The 3× substrate for the HTS contained 0.6 mM Na2ATP, 0.10 mCi/mL γ-[^32P]ATP (NEN, Pittsburgh, Pa.), 6 μM PIP2/PS liposomes (Avanti Polar Lipids, Inc., […].), in 20 mM HEPES, pH 7.4.

Data set [5] concerns Murine splenocytes (Balb/c). Description: B cell proliferation in response to cell surface IgM stimulation. Format: cell-based. As to conditions: Mus musculus, Splenocyte; stimulated B cell proliferation; read-out: Mouse BCR Stim (EC50). How it is done: In the above experiment, the B cells were stimulated using PANSORBIN®. The effect of D-000 on B cell proliferation response when they were stimulated through their cell surface IgM using anti-IgM antibody also was measured. Murine splenocytes (Balb/c) were plated into 96-well microtiter plates at 2×10^5 cells per well in 10% FBS/RPMI. Appropriate dilutions of test inhibitor in complete medium were added to the cells and the plates were incubated for 30-60 minutes prior to the addition of stimulus. Following the preincubation with test inhibitor an F(ab′)2 preparation of goat antibody specific for the μ-chain of mouse IgM was added to the wells at a final concentration of 25 μg/mL. The plates were incubated at 37° C. for 3 days and 1 μCi of [^3H]-thymidine was added to each well for the final four hours of culture. The plates were harvested onto fiber filters washed and the incorporation of radiolabel was determined using a beta counter (Matrix 96, Packard Instrument Co., Downers Grove, Ill.) and expressed as counts per minute (CPM).
(§2) Using the methods described in Examples 3-5, above, compounds of the invention were tested for inhibitory activity and potency in assays of stimulated B and T cell proliferation, neutrophil (PMN) migration, and neutrophil (PMN) elastase release. In Table 4, the values shown are effective concentrations of the compound (EC50; μM). Where no value is given, no assay was performed.

Data set [6] addresses T4, PI3Kα (Homo sapiens, UniProt P42336).
T4 construct: His tag (pFastbac HTb vector) (N); FLAG; made in house; host or cells: Sf21 insect cells (baculovirus)
The data set can be described thus: Biochemical assay of PI3K potency and selectivity using 20 μM ATP, Alpha. As to conditions: for Alpha/Delta Ratio / IC50: 20 μM ATP; for Alpha/Delta Ratio: ratio of IC50 values, > = hypothetical ratio with 100 μM substituted for the missing IC50; for IC50: read-out: Alpha IC50; for remaining activity at 100 µM: read-out: percent activity remaining at 100 μM, 20 μM ATP, 100 μM compound did not inhibit by at least 50%.
Description: as §1

Data set [7] deals with T4, PI3Kα. Description: Biochemical assay using 200 μM ATP, Alpha.
Another data set has as its system human neutrophils. The data set can be described thus: Elastase exocytosis from neutrophils (fMLP-induced). Format: cell-based. As to conditions: neutrophil (PMN) elastase release. How it is done:
Aliquots (8 mL) of heparinized blood from healthy volunteers were layered on 3 mL cushions of 7.3% FICOLL® (Sigma, St. Louis, Mo.) and 15.4% HYPAQUE® (Sigma) and centrifuged at 900 rpm for 30 min at room temperature in a table top centrifuge (Beckman). The neutrophil-rich band just above the FICOLL®-HYPAQUE® cushion was collected and washed with Hanks' balanced salt solution (HBSS) containing 0.1% gelatin. Residual erythrocytes were removed by hypotonic lysis with 0.2% NaCl. The neutrophil preparation was washed twice with HBSS containing 0.1% gelatin and used immediately.
In addition to superoxide generation, activated neutrophils also respond by releasing several proteases that are responsible for the destruction of tissues and cartilage during inflammation. As an indication of protease release, the effect of D-000 on elastase exocytosis was measured. Elastase exocytosis was quantitated by modification of the procedure described by Ossanna et al. (J Clin Invest, 77:1939-1951 (1986)), as follows. Purified human neutrophils (0.2×10^6) (treated with either DMSO or a serial dilution of D-000 in DMSO) were stimulated with fMLP in PBS containing 0.01 mg/mL cytochalasin B, 1.0 μM sodium azide (NaN3), 5 μg/mL L-methionine and 1 μM fMLP for 90 min at 37° C. in a 96-well plate. At the end of the incubation period, the plate was centrifuged for 5 min at 1000 rpm, and 90 μL of the supernatant was transferred to 10 μL of 10 mM solution of an elastase substrate peptide, MeO-suc-Ala-Ala-Pro-Val-pNA, wherein MeO-suc=methoxy-succinyl; pNA=p-nitroanilide (Calbiochem, San Diego, Calif.). Absorbance at 410 nm was monitored for 2 hr in a 96-well plate reader. To measure the relative amounts of elastase excytosed, all absorbance values were normalized to the values without any inhibitor. […] Inhibition was half-maximal at a concentration of about 2-3 μM D-000.
as §2

T4 sequence (P42336 whole entry): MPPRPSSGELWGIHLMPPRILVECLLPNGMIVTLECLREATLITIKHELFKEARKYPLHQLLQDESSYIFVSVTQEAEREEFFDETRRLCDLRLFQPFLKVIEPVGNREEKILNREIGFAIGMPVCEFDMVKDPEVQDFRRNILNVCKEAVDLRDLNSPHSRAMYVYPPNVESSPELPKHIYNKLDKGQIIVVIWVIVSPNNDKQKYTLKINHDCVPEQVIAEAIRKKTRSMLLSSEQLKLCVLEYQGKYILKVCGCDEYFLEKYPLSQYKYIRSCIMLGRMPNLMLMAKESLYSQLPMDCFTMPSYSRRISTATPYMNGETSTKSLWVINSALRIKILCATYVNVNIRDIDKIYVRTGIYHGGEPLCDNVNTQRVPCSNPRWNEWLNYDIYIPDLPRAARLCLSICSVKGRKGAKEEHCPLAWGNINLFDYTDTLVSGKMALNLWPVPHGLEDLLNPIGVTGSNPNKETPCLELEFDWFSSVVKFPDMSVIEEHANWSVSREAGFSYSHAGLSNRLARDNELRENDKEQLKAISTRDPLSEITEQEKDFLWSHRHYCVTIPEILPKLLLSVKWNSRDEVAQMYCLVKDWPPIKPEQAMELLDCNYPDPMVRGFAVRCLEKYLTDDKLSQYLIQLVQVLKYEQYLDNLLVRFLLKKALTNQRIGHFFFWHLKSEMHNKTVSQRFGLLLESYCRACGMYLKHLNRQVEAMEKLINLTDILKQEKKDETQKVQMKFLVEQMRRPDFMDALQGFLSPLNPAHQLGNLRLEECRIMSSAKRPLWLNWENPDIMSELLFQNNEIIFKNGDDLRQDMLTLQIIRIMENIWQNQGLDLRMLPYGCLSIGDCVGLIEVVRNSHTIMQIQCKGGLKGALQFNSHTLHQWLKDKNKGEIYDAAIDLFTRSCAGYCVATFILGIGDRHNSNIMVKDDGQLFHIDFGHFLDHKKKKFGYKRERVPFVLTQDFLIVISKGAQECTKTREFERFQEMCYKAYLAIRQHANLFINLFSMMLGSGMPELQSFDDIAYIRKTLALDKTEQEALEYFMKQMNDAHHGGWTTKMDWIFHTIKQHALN
T4 sequence (P27986 whole entry partner): as the sequence (P27986 whole entry partner) above
T1 sequence (O00329 whole entry S253N): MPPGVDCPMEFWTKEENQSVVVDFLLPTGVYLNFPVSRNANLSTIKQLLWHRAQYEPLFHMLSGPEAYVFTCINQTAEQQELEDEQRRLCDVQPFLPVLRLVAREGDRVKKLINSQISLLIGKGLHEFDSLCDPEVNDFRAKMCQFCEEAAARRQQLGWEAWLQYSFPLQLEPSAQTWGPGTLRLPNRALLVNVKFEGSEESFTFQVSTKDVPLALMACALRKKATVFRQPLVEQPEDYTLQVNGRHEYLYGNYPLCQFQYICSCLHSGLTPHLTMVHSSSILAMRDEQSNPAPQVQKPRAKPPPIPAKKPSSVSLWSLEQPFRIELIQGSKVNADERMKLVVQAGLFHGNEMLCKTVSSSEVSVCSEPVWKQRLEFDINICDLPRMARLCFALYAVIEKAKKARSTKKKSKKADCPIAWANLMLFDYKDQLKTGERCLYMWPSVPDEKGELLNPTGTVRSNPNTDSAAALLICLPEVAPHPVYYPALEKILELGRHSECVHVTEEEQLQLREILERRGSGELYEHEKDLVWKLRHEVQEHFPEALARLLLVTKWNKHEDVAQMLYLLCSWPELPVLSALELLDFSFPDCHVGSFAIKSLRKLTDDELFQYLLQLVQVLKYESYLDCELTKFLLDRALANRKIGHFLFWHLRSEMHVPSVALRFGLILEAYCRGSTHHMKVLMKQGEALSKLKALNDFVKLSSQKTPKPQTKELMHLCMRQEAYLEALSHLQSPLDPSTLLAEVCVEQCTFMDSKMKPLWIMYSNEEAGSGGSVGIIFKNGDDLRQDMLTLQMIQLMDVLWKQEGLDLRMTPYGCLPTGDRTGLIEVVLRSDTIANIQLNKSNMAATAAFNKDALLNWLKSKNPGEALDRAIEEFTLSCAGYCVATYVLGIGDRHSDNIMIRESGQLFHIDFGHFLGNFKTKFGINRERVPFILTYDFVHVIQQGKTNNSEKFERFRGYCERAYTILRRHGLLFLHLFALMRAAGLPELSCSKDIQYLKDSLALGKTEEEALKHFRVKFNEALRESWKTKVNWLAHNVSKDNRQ
T1 sequence (P27986 whole entry partner): as the sequence (P27986 whole entry partner) above

As to `Cc1cccc2nc(CSc3ncnc4[nH]cnc34)n(-c3c(Cl)cccc3Cl)c(=O)c12` [Compound D-034, 3-(2,6-dichlorophenyl)-5-methyl-2-(9H-purin-6-ylsulfanylmethyl)-3H-quinazolin-4-one], the IC50 on PI3Kδ [1] worked out at 1.2 ± 0.3 µM; on PI3Kγ, 34 ± 1 µM; on PI3Kδ [2], 0.15 µM; at PI3Kβ [3], 103 ± 4 µM; on PI3Kβ [4], 11 µM; on PI3Kα [6], 19 µM. At PI3Kγ, the “Gamma/Delta Ratio” value is given as 28. Besides, the “Beta/Delta Ratio” value is 85 at PI3Kβ [3] and 74 on PI3Kβ [4]. Also, the EC50 in data set [5] turned out to be 0.6 ± 0.4 µM. The “Alpha/Delta Ratio” value at PI3Kα [6] was 131; on PI3Kα [7], 153.
Turning to `O=c1c2ccc([N+](=O)[O-])cc2nc(CSc2ncnc3[nH]cnc23)n1-c1ccccc1Cl` [Compound D-023, 3-(2-Chlorophenyl)-7-nitro-2-(9H-purin-6-ylsulfanylmethyl)-3H-quinazolin-4-one], the melting point is 218 to 218.3 °C (dec.). For the same compound, the IC50 on PI3Kδ [2] came to 26 µM. Moreover, at PI3Kβ [4], the “Beta/Delta Ratio” value is greater than 3.9 and the remaining activity at 100 µM was found to be 91%. On PI3Kα [6], the “Alpha/Delta Ratio” value is greater than 4 and the remaining activity at 100 µM was 83%.
`Nc1ncnc2c1ncn2Cc1nc2ccc(Br)cc2c(=O)n1-c1ccccc1Cl` [Compound D-002, 2-(6-Aminopurin-o-ylmethyl)-6-bromo-3-(2-chlorophenyl)-3H-quinazolin-4-one]: the melting point was 284.2 to 284.7 °C (dec.). For the same compound, at PI3Kδ [2], the IC50 came to 44 µM. In addition, on PI3Kβ [4], the “Beta/Delta Ratio” value is reported as greater than 2.3 and the remaining activity at 100 µM worked out at 78%. Besides, at PI3Kα [6], the “Alpha/Delta Ratio” value was greater than 2.3 and the remaining activity at 100 µM stood at 88%.
`O=c1c2cc(Br)ccc2nc(CSc2ncnc3[nH]cnc23)n1-c1ccccc1Cl` [Compound D-017, 6-Bromo-3-(2-chlorophenyl)-2-(9H-purin-6-ylsulfanylmethyl)-3H-quinazolin-4-one]: the melting point is 212 to 242 °C (dec.). Also, at PI3Kδ [2], the IC50 came out at 12 µM. In addition, on PI3Kβ [4], the “Beta/Delta Ratio” value is recorded as greater than 8 and the remaining activity at 100 µM turned out to be 108%. At PI3Kα [6], the “Alpha/Delta Ratio” value is greater than 8 and the remaining activity at 100 µM came to 89%.
`Nc1ncnc2c1ncn2Cc1nc2c(Cl)cccc2c(=O)n1-c1ccccc1Cl` [Compound D-008, 2-(6-Aminopurin-9-ylmethyl)-8-chloro-3-(2-chlorophenyl)-3H-quinazolin-4-one] displayed a melting point of 273.3 to 273.5 °C. Also, the IC50 on PI3Kδ [2] amounted to 1.2 µM. Besides, on PI3Kβ [4], the “Beta/Delta Ratio” value was determined as 57 and the IC50 stood at 68 µM. The EC50 in data set [5] amounted to 1 µM. Also, on PI3Kα [6], the “Alpha/Delta Ratio” value was greater than 85 and the remaining activity at 100 µM came to 82%.
With `COc1cc2nc(CSc3ncnc4[nH]cnc34)n(-c3ccccc3Cl)c(=O)c2cc1OC` [Compound D-016, 3-(2-Chlorophenyl)-6,7-dimethoxy-2-(9H-purin-6-ylsulfanylmethyl)-3H-quinazolin-4-one], the melting point is 160 to 180 °C (dec.). Also, at PI3Kδ [2], the IC50 worked out at 40 µM. Besides, on PI3Kβ [4], the “Beta/Delta Ratio” value was greater than 3 and the remaining activity at 100 µM was 81%. In addition, at PI3Kα [6], the “Alpha/Delta Ratio” value is listed as greater than 2.5 and the remaining activity at 100 µM came out at 91%.
As for `O=c1c2cc(Cl)ccc2nc(CSc2ncnc3[nH]cnc23)n1-c1ccccc1Cl` [Compound D-020, 6-Chloro-3-(2-chlorophenyl)-2-(9H-purin-6-ylsulfanylmethyl)-3H-quinazolin-4-one], the melting point is 237.1 to 238.2 °C (dec.). The IC50 on PI3Kδ [2] is 1.9 µM. Also, on PI3Kβ [4], the “Beta/Delta Ratio” value was greater than 53 and the remaining activity at 100 µM was 69%. At PI3Kα [6], the “Alpha/Delta Ratio” value is greater than 53 and the remaining activity at 100 µM turned out to be 69%.
Turning to `O=c1c2cc(O)ccc2nc(CSc2ncnc3[nH]cnc23)n1-c1ccccc1Cl` [Compound D-024, 3-(2-Chlorophenyl)-6-hydroxy-2-(9H-purin-6-ylsulfanylmethyl)-3H-quinazolin-4-one], the melting point was 186 to 214 °C (dec.). Also, the IC50 at PI3Kδ [2] stood at 2.6 µM. On PI3Kβ [4], the “Beta/Delta Ratio” value was greater than 38 and the remaining activity at 100 µM turned out to be 76%. In addition, on PI3Kα [6], the “Alpha/Delta Ratio” value is 38 and the IC50 is 100 µM. This compound also came in with an EC50 in the data set with human neutrophils of 2.9 µM.
In the case of `CCOC(=O)Cn1c(CSc2ncnc3[nH]cnc23)nc2cccc(F)c2c1=O` [Compound D-045, [5-fluoro-4-oxo-2-(9H-purin-6-ylsulfanylmethyl)-4H-quinazolin-3-yl]acetic acid ethyl ester], at PI3Kδ [2], the IC50 turned out to be 7.6 µM. Further, on PI3Kβ [4], the “Beta/Delta Ratio” value was greater than 13 and the remaining activity at 100 µM was 74%. For the same compound, at PI3Kα [6], the “Alpha/Delta Ratio” value was greater than 13 and the remaining activity at 100 µM was 98%. For the same compound, it took 9 µM to reach a half-maximal effect in the data set on human neutrophils (EC50).
For the compound `Nc1ncnc2c1ncn2Cc1nc2ccc(Cl)cc2c(=O)n1-c1ccccc1Cl` [Compound D-004, 2-(6-Aminopurin-9-ylmethyl)-6-chloro-3-(2-chlorophenyl)-3H-quinazolin-4-one], the melting point is 294.5 to 294.8 °C (dec.). On PI3Kδ [2], the IC50 was 64 µM. In addition, at PI3Kβ [4], the “Beta/Delta Ratio” value is on record as greater than 1.6 and the remaining activity at 100 µM stood at 89%. Further, at PI3Kα [6], the “Alpha/Delta Ratio” value is greater than 2 and the remaining activity at 100 µM turned out to be 93%.
As for `COc1cc2nc(Cn3cnc4c(N)ncnc43)n(-c3ccccc3Cl)c(=O)c2cc1OC` [Compound D-001, 2-(6-Aminopurin-9-ylmethyl)-3-(2-chlorophenyl)-6,7-dimethoxy-3H-quinazolin-4-one], the melting point is 281.5 to 282.7 °C (dec.). The IC50 at PI3Kδ [2] stood at 68 µM. In addition, on PI3Kβ [4], the “Beta/Delta Ratio” value was determined as 0.66 and the IC50 is 45 µM. On PI3Kα [6], the “Alpha/Delta Ratio” value was greater than 1.5 and the remaining activity at 100 µM is 83%.
